Assay results from patent publication US20080103198A1, “METHODS FOR TREATMENT OF COCHLEAR AND VESTIBULAR DISORDERS” (priority 2006, published 2008).
“And” between values parts separate entries of the source, which are not always exact repeats. Identical values can stand only once.

Assays:
Li-pilo induced SE = experiment: Lithium-pilocarpine model (Example 1): quantification of cell densities; assay type: in vivo, rat
Experimental: Quantification of cell densities was performed at […] after SE on 8 pilo-DZP, 8 pilo-test10, 7 pilo-test30, 7 pilo-test60, and 6 saline-saline rats. At 14 days after SE, animals were deeply anesthetized with 1.8 g/kg pentobarbital (Dolethal®, Vetoquinol, Lure, France. Brains were then removed and frozen. Serial 20 μm slices were cut in a cryostat, air-dried during several days before thionine staining.
Quantification of cell densities was performed with a 10×10 boxes 1 cm^2 microscopic grid on coronal sections according to the stereotaxic coordinates of the rat brain atlas (Paxinos and Watson, 1986, The Rat brain in Stereotaxic Coordinates, 2nd ed. Academic Press, San Diego). Cell counts were performed twice in a blind manner and were the average of at least 3 values from 2 adjacent sections in each individual animal. Counts involved only cells larger than 10 μm, smaller ones being considered as glial cells.
For the comparison of the characteristics of SE in pilo-saline and pilo-test compound animals, a non-paired Student's t-test was used. The comparison between the number of rats seizing in both groups was performed by means of a Chi square test. For neuronal damage, statistical analysis between groups was performed using ANOVA followed by a Fisher's test for multiple comparisons using the Statview software (Fisher R A, 1946a, Statistical Methods for Research Workers (10th edition) Oliver & Boyd, Edinburgh; Fisher R A, 1946b, The Design of Experiments (4th edition) Oliver & Boyd, Edinburgh) Behavioral and EEG characteristics of lithium-pitocarpine status epilepticus

[1] = tested on: transient cerebral ischemia (MCAO); experiment: Transient cerebral ischemia middle cerebral artery occlusion (MCAO) rat model; assay type: in vivo; conditions: N=12
Experimental: The enantiomer of Formula 7 was investigated in the transient cerebral ischemia middle cerebral artery occlusion (MCAO) rat model (as described in Nagasawa H. and Kogure K., Stroke, 1989, 20, 1037; and, Zea Longa E., Weinstein P. R., Carlson S, and Cummins R., Stroke, 1989, 20, 84) using male Wistar rats at 10 and 100 mg/kg (i.v.). MK 801 (Dizocilpine maleate; CAS Registry number 77086-22-7, a commercially available neuroprotectant compound) was used as a positive control (3 mg/kg, i.p.).
Rats (n=12) were randomly allocated to one of four experimental groups and were anesthetized. Blood flow from the internal carotid artery, anterior cerebral artery and posterior cerebral artery into the middle cerebral artery was blocked by this procedure. One hour after blockage, animals were treated over a 1 hour period with vehicle (administered i.v. over the one hour period), control (administered as a single i.p. dose at the start of the one hour period) and two doses of the enantiomer of Formula 7 (administered i.v. over the one hour period). Two hours after blockage, reperfusion was performed.
The animals were sacrificed and […] coronal sections of each brain were prepared. One in every forty sections (i.e. every […]) from the front to the occipital cortex was used to quantify the extent of the cerebral lesion. Slides were prepared using sections stained (according to the Nissl procedure) with cresyl violet and were examined under a light microscope.
Regional ischemic surface areas in the coronal sections of individual rats were determined according to the presence of cells with morphological changes. The areas of neuronal injury or infarction were measured and then added. The cortex and striatum volume were calculated for each animal (total ischemic surface area×0.8 mm (thickness)).
The mean volumes (.+−.S.E.M.) for each animal randomly assigned to the four experimental groups were compared using one-way ANOVA (one way ANOVA is a statistical method which compares 3 or more unmatched groups) followed by Dunnett's t-test (both methods incorporated in Statview 512+software, BarinPower, Calabasas, Calif., USA).

PC12 cells = experiment: PC12 cell serum withdrawal model (MTS assay); assay type: cell-based; conditions: control cells = 100%
Description: Serum withdrawal is a cytotoxic environmental challenge that results in cell death in cultured cell lines as well as in primary cells of various tissue origins, including nerve cells. In particular, pheochromocytoma (PC) 12 cells have been widely employed as an in vitro neuronal cell model for a wide variety of neurodegenerative and cell death related disorders (Muriel, et al, Mitochondrial free calcium levels (Rhod-2 fluorescence) and ultrastructural alterations in neuronally differentiated PC12 cells during ceramide-dependent cell death, J. Comp. Neurol., 2000, 426(2), 297-315; Dermitzaki, et al, Opioids transiently prevent activation of apoptotic mechanisms following short periods of serum withdrawal, J. Neurochem., 2000, 74(3), 960-969; Carlile, et al, Reduced apoptosis after nerve growth factor and serum withdrawal: conversion of tetrameric glyceraldehyde-3-phosphate dehydrogenase to a dimer, Mol. Pharmacol., 2000, 57(1), 2-12).
PC12 cells were cultured in sterile media (RPMI 1640) supplemented with 10% heat-inactivated horse serum and 5% fetal bovine serum (FBS). The culture medium also contained Penicillin-Streptomycin-Neomycin antibiotic (50µg, 50µg, 100µg, respectively). Medium was exchanged every other day and the cells were passed in log phase near confluence.
The control cells were cultured in regular media without any treatment. An enantiomer of Formula 7 or Formula 8 (10µM) was mixed well in the medium and then applied to the cells. For the 2 day assay, an enantiomer of Formula 7 or Formula 8 (10µM) was only applied to the cells once at the time of serum withdrawal. For the 7 day assay, an enantiomer of Formula 7 or Formula 8 (10. mu.M) was applied to the cells at the time of serum withdrawal and every 48 hr thereafter when cells were changed with fresh new serum-free medium. In the serum withdrawal group, the cells were cultured in serum-free medium with no additional enantiomer of Formula 7 or Formula 8. Cell survival was determined by the 3-(4,5-dimethylthiazol-2-yl)-5-(3-carboxy-methoxyphenyl)-2-(4-sulfophenyl)-2H-tetrazolium inner salt (MTS) assay at 2 or 7 days after serum withdrawal.
At the end of the experiment, cells were washed with fresh medium and incubated with MTS solution in a humidified 37° C. with 5% CO2 incubator for 1.5 hr. After the incubation period, the cells were immediately analyzed using a Softmax program (Molecular Devices). […] The assay is based on the cellular conversion of the tetrazolium salt, MTS, into a formazan that is soluble in tissue culture medium and measured directly at 490 nm in 96-well assay plates. The absorbance is directly proportional to the number of living cells in culture. The arbitrary absorbance reading in control cells is expressed as 100% survival rate.

[2] = DZP, compared to saline-saline rats
[3] = Formula 7 10 mg/kg i.v. over 1 hour
[4] = Formula 7 100 mg/kg i.v. over 1 hour

CN1C(=O)CN=C(c2ccccc2)c2cc(Cl)ccc21 [DZP, diazepam, reference compound] was tested, and the “cell loss, CA3a” value (Li-pilo induced SE; [2]) was 54%, the “cell loss, CA3b” value (Li-pilo induced SE; [2]) was 31% and the “cell loss, dorsal entorhinal cortex layer II” value (Li-pilo induced SE; [2]) was 9%. For the same molecule, the “cell loss, dorsal entorhinal cortex layers III-IV” value (Li-pilo induced SE; [2]) was 15%, the “cell loss, hilus of dentate gyrus” value (Li-pilo induced SE; [2]) was 73% and the “cell loss, hippocampus CA1 pyramidal cell layer” value (Li-pilo induced SE; [2]) was 70% and 75%. The “cell loss, lateral thalamic nucleus” value (Li-pilo induced SE; [2]) was 91%, the “cell loss, mediodorsal thalamic nucleus” value (Li-pilo induced SE; [2]) was 56% and the “cell loss, piriform cortex layer II” value (Li-pilo induced SE; [2]) was 53%. The “cell loss, piriform cortex layers III-IV” value (Li-pilo induced SE; [2]) was “total”, the “cell loss, ventral entorhinal cortex layers III-IV” value (Li-pilo induced SE; [2]) was 44% and the “damage, ventral entorhinal cortex layer II” value (Li-pilo induced SE; [2]) was “totally preserved”.

NC(=O)OC[C@@H](O)c1ccccc1Cl [test compound] was tested, and the “more damage compared with pilo-DZP rats, dorsal entorhinal cortex layers III-IV” value (Li-pilo induced SE; 10 mg/kg) was 28%, the “more damage compared with pilo-DZP rats, ventral entorhinal cortex layers III-IV” value (Li-pilo induced SE; 10 mg/kg) was 35% and the “neuroprotection compared to pilo-DZP rats, ventral entorhinal cortex layers III-IV” value (Li-pilo induced SE; 60 mg/kg) was 31%. The “neuroprotection in CA3b” value (Li-pilo induced SE; 60 mg/kg) was “significantly neuroprotective”, the “reduction of neuronal damage recorded in pilo-DZP rats, piriform cortex layer II” value (Li-pilo induced SE; 60 mg/kg) was 41% and the “reduction of neuronal damage recorded in pilo-DZP rats, piriform cortex layers III-IV” value (Li-pilo induced SE; 60 mg/kg) was 44%. For the same molecule, the “reduction of neuronal damage, lateral thalamic nucleus” value (Li-pilo induced SE; 60 mg/kg) was 65%, the “reduction of neuronal damage, mediodorsal thalamic nucleus” value (Li-pilo induced SE; 60 mg/kg) was 42% and the “neuroprotection in CA3a area” value (Li-pilo induced SE; 10, 30, 60 mg/kg) was “did not afford any protection”. For the same molecule, the “cell loss, hilus of dentate gyrus” value (Li-pilo induced SE; pilo-test compound animals (10-60 mg/kg)) was 69-72%, the “cell loss, CA1 pyramidal layer” value (Li-pilo induced SE; test compound 30 mg/kg) was 35% and the “cell loss, CA1 pyramidal layer” value (Li-pilo induced SE; test compound 60 mg/kg) was 16%. The “Mean Infarct Volume ± S.E.M., Cortex Volume” value [1, 3] was 201.0 ± 23.9 ^ mm^3, the “Mean Infarct Volume ± S.E.M., Striatum” value [1, 3] was 75.9 ± 2.6^ mm^3 and the “Mean Infarct Volume ± S.E.M., Total” value [1, 3] was 276.9 ± 25.4^ mm^3. The “Mean Infarct Volume ± S.E.M., Cortex Volume” value [1, 4] was 98.8 ± 29.5^1 mm^3, the “Mean Infarct Volume ± S.E.M., Striatum” value [1, 4] was 63.0 ± 5.9^2 mm^3 and the “Mean Infarct Volume ± S.E.M., Total” value [1, 4] was 161.9 ± 34.3^1 mm^3. The “2 Day Survival Rate” value (PC12 cells; 10 µM applied once at serum withdrawal) was 69.4 ± 1.7^1% and the “7 Day Survival Rate” value (PC12 cells; 10 µM at serum withdrawal and every 48 hr) was 79.9 ± 4.0^2%.
